± gives the standard deviation of the averaged measurements.

The subject of the experiment is SW872. Briefly: relative viability vs DMSO control (72 h) (fraction); higher = more viable cells. An outline of the steps:
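Sarcoma cell lines went into 384-well plates at densities chosen to reach 80–90% confluence. After 24 h, each well received 2.5 µl of serially diluted compound, with source plates running from 10 mM to 0.0002 mM, and the plates were kept 72 h at 37 °C, 5% CO2, alongside 0.1% DMSO vehicle and a 5 µM positive control. Relative viability was derived from ATPLite readings as percent growth and averaged over up to triplicate wells. The data were then rescaled so that 1 stands for full and 0 for none.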

`CO[C@H]1C[C@@H]2CC[C@@H](C)[C@@](O)(O2)C(=O)C(=O)N2CCCC[C@H]2C(=O)O[C@H]([C@H](C)C[C@@H]2CC[C@@H](OP(C)(C)=O)[C@H](OC)C2)CC(=O)[C@H](C)/C=C(\C)[C@@H](O)[C@@H](OC)C(=O)[C@H](C)C[C@H](C)/C=C/C=C/C=C/1C` [Ridaforolimus]: the relative viability was found to be 0.974 ± 0.036 (0.00017 µM); 0.833 ± 0.034 (0.00051 µM); 0.747 ± 0.021 (0.00152 µM); 0.7118 ± 0.0071 (0.00457 µM); 0.626 ± 0.035 (0.01372 µM); 0.6 ± 0.034 (0.04115 µM). Moreover, the relative viability stood at 0.5981 ± 0.0039 (0.1235 µM); 0.597 ± 0.0072 (0.3704 µM); 0.579 ± 0.012 (1.111 µM); 0.565 ± 0.017 (3.333 µM); 0.565 ± 0.015 (10 µM).

Regarding `O=C(Cc1ccc(-c2ccc(OCCN3CCOCC3)cc2)cn1)NCc1ccccc1` [KX2-391], the relative viability by setting is: (0.00017 µM) 1.06 ± 0.031; (0.00051 µM) 1.05 ± 0.037; (0.00152 µM) 1.08 ± 0.029; (0.00457 µM) 1.03 ± 0.031; (0.01372 µM) 1.04 ± 0.034; (0.04115 µM) 0.912 ± 0.049. For the same molecule, the relative viability amounted to 0.504 ± 0.037 (0.1235 µM); 0.472 ± 0.029 (0.3704 µM); 0.435 ± 0.014 (1.111 µM); 0.443 ± 0.022 (3.333 µM); 0.461 ± 0.028 (10 µM).

`COc1cc2nccc(Oc3ccc(NC(=O)Nc4cc(C)on4)c(Cl)c3)c2cc1OC` [Tivozanib]: the relative viability is 1.07 ± 0.073 (0.00017 µM); 1.07 ± 0.026 (0.00051 µM); 1.04 ± 0.031 (0.00152 µM); 1.06 ± 0.038 (0.00457 µM); 1.08 ± 0.031 (0.01372 µM); 1.09 ± 0.039 (0.04115 µM). Further, the relative viability by setting is: (0.1235 µM) 1.08 ± 0.044; (0.3704 µM) 1.1 ± 0.051; (1.111 µM) 1.07 ± 0.028; (3.333 µM) 1.03 ± 0.036; (10 µM) 0.691 ± 0.031.

Regarding `CCc1cc2c(cc1N1CCC(N3CCOCC3)CC1)C(C)(C)c1[nH]c3cc(C#N)ccc3c1C2=O` [Alectinib], the relative viability was determined as 1.03 ± 0.043 (0.00017 µM); 1.02 ± 0.063 (0.00051 µM); 1.05 ± 0.069 (0.00152 µM); 1.04 ± 0.036 (0.00457 µM); 1.07 ± 0.053 (0.01372 µM); 1.06 ± 0.046 (0.04115 µM). For the same molecule, the relative viability amounted to 1.09 ± 0.062 (0.1235 µM); 1.07 ± 0.069 (0.3704 µM); 1.09 ± 0.058 (1.111 µM); 1.07 ± 0.076 (3.333 µM); 1.08 ± 0.065 (10 µM).

In the case of `COCc1c(-c2cc3cc(C)cc(OC)c3s2)c2c(N)ncnn2c1CN1CCNC(=O)C1` [Rogaratinib], the relative viability came out at 1.08 ± 0.043 (0.00017 µM); 1.07 ± 0.012 (0.00051 µM); 1.06 ± 0.045 (0.00152 µM); 1.03 ± 0.013 (0.00457 µM); 1.003 ± 0.0078 (0.01372 µM); 1.03 ± 0.011 (0.04115 µM). Besides, the relative viability is, setting by setting: (0.1235 µM) 1.03 ± 0.026; (0.3704 µM) 0.992 ± 0.028; (1.111 µM) 0.952 ± 0.02; (3.333 µM) 0.815 ± 0.051; (10 µM) 0.513 ± 0.0093.

As for `CN1CCC(COc2cnc(-c3cccc(Cn4nc(-c5cccc(C#N)c5)ccc4=O)c3)nc2)CC1` [Tepotinib], the relative viability is, setting by setting: (0.00017 µM) 1.057 ± 0.008; (0.00051 µM) 1.07 ± 0.02; (0.00152 µM) 1.05 ± 0.037; (0.00457 µM) 1.04 ± 0.022; (0.01372 µM) 1.03 ± 0.038; (0.04115 µM) 1.01 ± 0.022. For the same molecule, the relative viability by setting is: (0.1235 µM) 1.04 ± 0.016; (0.3704 µM) 1.02 ± 0.043; (1.111 µM) 0.999 ± 0.019; (3.333 µM) 0.972 ± 0.039; (10 µM) 0.918 ± 0.033.

As to `Cc1cnc(Nc2ccc(OCCN3CCCC3)cc2)nc1Nc1cccc(S(=O)(=O)NC(C)(C)C)c1` [Fedratinib], the relative viability is, setting by setting: (0.00017 µM) 1.04 ± 0.013; (0.00051 µM) 1.06 ± 0.027; (0.00152 µM) 1.05 ± 0.034; (0.00457 µM) 1.01 ± 0.073; (0.01372 µM) 1.04 ± 0.044; (0.04115 µM) 1.03 ± 0.075. Moreover, the relative viability is 0.942 ± 0.064 (0.1235 µM); 0.699 ± 0.049 (0.3704 µM); 0.408 ± 0.024 (1.111 µM); 0.16 ± 0.018 (3.333 µM); 0.00193 ± 0.0011 (10 µM).

Consider `Cn1cnc2c(F)c(Nc3ccc(Br)cc3F)c(C(=O)NOCCO)cc21` [Binimetinib], for which the relative viability turned out to be 1.11 ± 0.046 (0.00017 µM); 1.06 ± 0.027 (0.00051 µM); 1.02 ± 0.059 (0.00152 µM); 1.05 ± 0.041 (0.00457 µM); 0.889 ± 0.038 (0.01372 µM); 0.724 ± 0.086 (0.04115 µM). Further, the relative viability is, setting by setting: (0.1235 µM) 0.635 ± 0.041; (0.3704 µM) 0.584 ± 0.011; (1.111 µM) 0.589 ± 0.02; (3.333 µM) 0.583 ± 0.037; (10 µM) 0.559 ± 0.026.

As to `C[C@@H]1CCN(C(=O)CC#N)C[C@@H]1N(C)c1ncnc2[nH]ccc12` [Tofacitinib], the relative viability came out at 1.12 ± 0.03 (0.00017 µM); 1.08 ± 0.035 (0.00051 µM); 1.1 ± 0.028 (0.00152 µM); 1.09 ± 0.056 (0.00457 µM); 1.08 ± 0.032 (0.01372 µM); 1.04 ± 0.081 (0.04115 µM). The relative viability was 1.03 ± 0.056 (0.1235 µM); 1.02 ± 0.063 (0.3704 µM); 0.946 ± 0.068 (1.111 µM); 0.887 ± 0.095 (3.333 µM); 0.747 ± 0.064 (10 µM).

Values taken from the supplement of paper PMC10883282.
